Source: ChEMBL document CHEMBL4033665, “Synthesis and applications of benzohydroxamic acid-based histone deacetylase inhibitors” (Eur J Med Chem, 2017)
pIC50: −log10 of the molar value.

Experiments:
Histone deacetylase 2 [1] = target: T1, Histone deacetylase 2 (Homo sapiens, UniProt Q92769); assay: Inhibition of human HDAC2 after 15 mins by trypsin-coupled fluorescence assay
[2] = Inhibition of HDAC activity in human DU-145 cell nuclear extract
[3] = target: T2, Protein deacetylase HDAC6 (Homo sapiens, UniProt Q9UBN7); assay: Inhibition of recombinant human HDAC6 using Boc-Lys(acetyl)-AMC as substrate after 1 hr by fluorescence assay
T2 sequence (Q9UBN7 whole entry): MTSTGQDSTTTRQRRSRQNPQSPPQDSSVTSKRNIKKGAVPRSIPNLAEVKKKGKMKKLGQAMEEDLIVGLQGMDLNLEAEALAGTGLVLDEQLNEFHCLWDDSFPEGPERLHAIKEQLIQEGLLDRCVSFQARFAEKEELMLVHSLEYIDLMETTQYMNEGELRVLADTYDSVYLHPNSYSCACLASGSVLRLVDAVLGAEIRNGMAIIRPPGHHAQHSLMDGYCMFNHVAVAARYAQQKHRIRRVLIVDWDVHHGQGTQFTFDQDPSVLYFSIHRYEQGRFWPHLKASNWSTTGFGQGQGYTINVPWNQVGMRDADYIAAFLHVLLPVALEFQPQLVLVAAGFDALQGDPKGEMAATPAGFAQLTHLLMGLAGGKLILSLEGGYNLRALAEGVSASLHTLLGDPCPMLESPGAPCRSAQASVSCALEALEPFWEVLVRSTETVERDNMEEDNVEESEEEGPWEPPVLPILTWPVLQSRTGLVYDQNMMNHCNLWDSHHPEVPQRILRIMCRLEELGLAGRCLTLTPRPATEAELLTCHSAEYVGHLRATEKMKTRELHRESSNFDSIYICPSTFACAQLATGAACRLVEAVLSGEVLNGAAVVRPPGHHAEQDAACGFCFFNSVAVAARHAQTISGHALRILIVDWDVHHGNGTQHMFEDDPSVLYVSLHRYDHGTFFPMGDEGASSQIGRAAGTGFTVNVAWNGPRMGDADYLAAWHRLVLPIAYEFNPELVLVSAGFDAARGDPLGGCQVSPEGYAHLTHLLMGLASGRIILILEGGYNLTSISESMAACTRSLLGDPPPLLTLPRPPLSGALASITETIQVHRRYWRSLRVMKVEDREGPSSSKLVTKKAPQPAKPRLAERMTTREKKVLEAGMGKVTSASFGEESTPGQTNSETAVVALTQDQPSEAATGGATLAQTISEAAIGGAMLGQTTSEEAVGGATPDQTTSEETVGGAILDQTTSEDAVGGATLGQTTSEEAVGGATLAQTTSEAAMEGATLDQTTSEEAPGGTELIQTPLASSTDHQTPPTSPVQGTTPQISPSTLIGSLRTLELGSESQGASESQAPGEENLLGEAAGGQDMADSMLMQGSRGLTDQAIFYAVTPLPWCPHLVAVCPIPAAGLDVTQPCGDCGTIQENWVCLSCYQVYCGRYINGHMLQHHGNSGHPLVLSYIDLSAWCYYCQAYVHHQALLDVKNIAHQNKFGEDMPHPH

Histone deacetylase 2 [4] = target: T1, Histone deacetylase 2; assay: Inhibition of HDAC2 (unknown origin)
Histone deacetylase 3 = Histone deacetylase 3 (Homo sapiens, UniProt O15379); assay: Inhibition of HDAC3 (unknown origin)
Histone deacetylase 4 = Histone deacetylase 4 (Homo sapiens, UniProt P56524); assay: Inhibition of HDAC4 (unknown origin)
Histone deacetylase 5 = Histone deacetylase 5 (Homo sapiens, UniProt Q9UQL6); assay: Inhibition of HDAC5 (unknown origin)
[5] = target: T2, Protein deacetylase HDAC6; assay: Inhibition of HDAC6 (unknown origin)
Histone deacetylase 8 [6] = target: T3, Histone deacetylase 8 (Homo sapiens, UniProt Q9BY41); assay: Inhibition of HDAC8 (unknown origin)
T3 sequence (Q9BY41 whole entry): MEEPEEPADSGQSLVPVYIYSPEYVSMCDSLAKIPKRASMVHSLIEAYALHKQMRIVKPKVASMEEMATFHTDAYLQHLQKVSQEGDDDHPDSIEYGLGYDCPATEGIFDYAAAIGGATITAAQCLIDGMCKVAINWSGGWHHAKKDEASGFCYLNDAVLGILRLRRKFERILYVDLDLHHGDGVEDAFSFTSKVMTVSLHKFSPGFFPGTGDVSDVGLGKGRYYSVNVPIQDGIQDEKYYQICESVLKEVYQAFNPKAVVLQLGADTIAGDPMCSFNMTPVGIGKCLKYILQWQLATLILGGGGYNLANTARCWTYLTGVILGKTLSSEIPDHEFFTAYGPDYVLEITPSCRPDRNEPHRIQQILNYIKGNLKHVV

[7] = target: T4, Polyamine deacetylase HDAC10 (Homo sapiens, UniProt Q969S8); assay: Inhibition of HDAC10 (unknown origin)
T4 sequence (Q969S8 whole entry): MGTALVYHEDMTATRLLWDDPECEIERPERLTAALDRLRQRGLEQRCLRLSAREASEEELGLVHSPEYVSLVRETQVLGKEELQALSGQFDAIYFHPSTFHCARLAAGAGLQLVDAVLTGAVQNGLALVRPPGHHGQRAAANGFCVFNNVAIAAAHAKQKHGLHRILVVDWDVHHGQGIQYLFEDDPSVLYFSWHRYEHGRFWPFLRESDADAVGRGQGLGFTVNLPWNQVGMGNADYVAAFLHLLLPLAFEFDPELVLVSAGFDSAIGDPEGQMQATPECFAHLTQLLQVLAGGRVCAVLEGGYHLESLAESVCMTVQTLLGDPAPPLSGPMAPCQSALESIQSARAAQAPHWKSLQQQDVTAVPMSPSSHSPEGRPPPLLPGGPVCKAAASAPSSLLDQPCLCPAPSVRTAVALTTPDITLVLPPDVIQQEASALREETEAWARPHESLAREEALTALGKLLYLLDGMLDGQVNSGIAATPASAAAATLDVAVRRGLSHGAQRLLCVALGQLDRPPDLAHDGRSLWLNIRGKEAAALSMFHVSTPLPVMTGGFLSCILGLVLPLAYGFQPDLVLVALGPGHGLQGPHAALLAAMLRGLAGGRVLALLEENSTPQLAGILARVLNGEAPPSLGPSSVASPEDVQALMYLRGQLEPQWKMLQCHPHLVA

Histone deacetylase 11 = target: T5, Histone deacetylase 11 (Homo sapiens, UniProt Q96DB2); assay: Inhibition of HDAC11 (unknown origin)
T5 sequence (Q96DB2 whole entry): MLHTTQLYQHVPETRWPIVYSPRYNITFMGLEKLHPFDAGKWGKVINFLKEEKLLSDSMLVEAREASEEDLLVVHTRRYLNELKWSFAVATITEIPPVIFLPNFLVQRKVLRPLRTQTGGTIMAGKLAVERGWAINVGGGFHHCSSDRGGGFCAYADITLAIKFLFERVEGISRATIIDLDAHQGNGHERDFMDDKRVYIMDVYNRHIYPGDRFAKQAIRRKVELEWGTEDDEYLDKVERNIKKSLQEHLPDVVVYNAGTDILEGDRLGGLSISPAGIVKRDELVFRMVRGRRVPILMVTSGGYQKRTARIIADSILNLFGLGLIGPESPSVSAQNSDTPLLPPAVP

[8] = Inhibition of maize HD2; design: species or system Zea mays
Histone deacetylase HD1B = Histone deacetylase HD1B (Zea mays, UniProt Q9ZTP8); assay: Inhibition of maize HD1B
[9] = Inhibition of maize HD1A; design: species or system Zea mays
Histone deacetylase 1 [10] = target: T6, Histone deacetylase 1 (Homo sapiens, UniProt Q13547); assay: Inhibition of HDAC1 (unknown origin)
Histone deacetylase 1 [11] = target: T6, Histone deacetylase 1; assay: Inhibition of human HDAC1 using MAL as substrate at 100 uM after 90 mins by fluorescence assay
[12] = target: T7, Protein deacetylase HDAC6 (Homo sapiens) (UniProt Q9UBN7); assay: Inhibition of human HDAC6 at 100 uM after 90 mins by fluorescence assay
T7 sequence (whole entry): T2 sequence (Q9UBN7 whole entry)

Histone deacetylase 8 [13] = target: T3, Histone deacetylase 8; assay: Inhibition of human HDAC8 using ZMTFAL as substrate after 90 mins by fluorescence assay

T6 sequence (Q13547 whole entry): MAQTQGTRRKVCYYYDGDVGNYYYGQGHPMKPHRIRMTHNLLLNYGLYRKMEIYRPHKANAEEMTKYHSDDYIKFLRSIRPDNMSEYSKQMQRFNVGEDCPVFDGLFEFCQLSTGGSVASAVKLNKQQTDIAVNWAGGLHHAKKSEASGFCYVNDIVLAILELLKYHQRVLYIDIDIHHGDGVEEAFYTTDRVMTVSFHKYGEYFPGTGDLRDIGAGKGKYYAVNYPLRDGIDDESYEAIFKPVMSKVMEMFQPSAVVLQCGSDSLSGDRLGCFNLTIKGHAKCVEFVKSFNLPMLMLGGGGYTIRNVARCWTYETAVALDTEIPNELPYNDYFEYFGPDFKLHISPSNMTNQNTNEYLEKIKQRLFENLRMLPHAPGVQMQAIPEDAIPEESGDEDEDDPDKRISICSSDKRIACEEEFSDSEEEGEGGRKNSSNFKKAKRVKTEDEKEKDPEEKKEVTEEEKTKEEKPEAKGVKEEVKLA
T1 sequence (Q92769 whole entry): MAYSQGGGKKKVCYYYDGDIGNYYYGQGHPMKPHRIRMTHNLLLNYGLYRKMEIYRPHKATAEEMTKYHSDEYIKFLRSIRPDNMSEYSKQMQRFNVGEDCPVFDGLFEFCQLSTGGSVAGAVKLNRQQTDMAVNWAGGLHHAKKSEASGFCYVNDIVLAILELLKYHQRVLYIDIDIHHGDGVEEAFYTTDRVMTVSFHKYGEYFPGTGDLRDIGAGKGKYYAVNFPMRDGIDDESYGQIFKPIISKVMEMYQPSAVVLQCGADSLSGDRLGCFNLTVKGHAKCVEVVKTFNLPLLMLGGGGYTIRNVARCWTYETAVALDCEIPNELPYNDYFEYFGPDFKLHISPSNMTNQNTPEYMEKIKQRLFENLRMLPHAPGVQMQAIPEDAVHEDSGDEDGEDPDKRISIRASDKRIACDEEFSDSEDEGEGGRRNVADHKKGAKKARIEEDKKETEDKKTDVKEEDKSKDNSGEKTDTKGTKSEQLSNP
Chain of Histone deacetylase 3 (O15379 whole entry): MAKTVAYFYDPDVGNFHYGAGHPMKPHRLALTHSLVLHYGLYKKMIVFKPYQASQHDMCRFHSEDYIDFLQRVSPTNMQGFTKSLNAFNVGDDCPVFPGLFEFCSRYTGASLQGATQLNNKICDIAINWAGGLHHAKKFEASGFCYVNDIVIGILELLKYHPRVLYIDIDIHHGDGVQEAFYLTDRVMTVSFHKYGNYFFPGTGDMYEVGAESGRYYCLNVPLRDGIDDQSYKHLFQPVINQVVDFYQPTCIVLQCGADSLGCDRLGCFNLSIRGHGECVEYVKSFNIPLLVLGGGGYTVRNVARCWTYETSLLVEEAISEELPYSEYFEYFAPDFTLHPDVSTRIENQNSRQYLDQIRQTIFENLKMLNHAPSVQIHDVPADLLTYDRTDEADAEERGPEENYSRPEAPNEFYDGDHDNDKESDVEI
Chain of Histone deacetylase 4 (P56524 whole entry): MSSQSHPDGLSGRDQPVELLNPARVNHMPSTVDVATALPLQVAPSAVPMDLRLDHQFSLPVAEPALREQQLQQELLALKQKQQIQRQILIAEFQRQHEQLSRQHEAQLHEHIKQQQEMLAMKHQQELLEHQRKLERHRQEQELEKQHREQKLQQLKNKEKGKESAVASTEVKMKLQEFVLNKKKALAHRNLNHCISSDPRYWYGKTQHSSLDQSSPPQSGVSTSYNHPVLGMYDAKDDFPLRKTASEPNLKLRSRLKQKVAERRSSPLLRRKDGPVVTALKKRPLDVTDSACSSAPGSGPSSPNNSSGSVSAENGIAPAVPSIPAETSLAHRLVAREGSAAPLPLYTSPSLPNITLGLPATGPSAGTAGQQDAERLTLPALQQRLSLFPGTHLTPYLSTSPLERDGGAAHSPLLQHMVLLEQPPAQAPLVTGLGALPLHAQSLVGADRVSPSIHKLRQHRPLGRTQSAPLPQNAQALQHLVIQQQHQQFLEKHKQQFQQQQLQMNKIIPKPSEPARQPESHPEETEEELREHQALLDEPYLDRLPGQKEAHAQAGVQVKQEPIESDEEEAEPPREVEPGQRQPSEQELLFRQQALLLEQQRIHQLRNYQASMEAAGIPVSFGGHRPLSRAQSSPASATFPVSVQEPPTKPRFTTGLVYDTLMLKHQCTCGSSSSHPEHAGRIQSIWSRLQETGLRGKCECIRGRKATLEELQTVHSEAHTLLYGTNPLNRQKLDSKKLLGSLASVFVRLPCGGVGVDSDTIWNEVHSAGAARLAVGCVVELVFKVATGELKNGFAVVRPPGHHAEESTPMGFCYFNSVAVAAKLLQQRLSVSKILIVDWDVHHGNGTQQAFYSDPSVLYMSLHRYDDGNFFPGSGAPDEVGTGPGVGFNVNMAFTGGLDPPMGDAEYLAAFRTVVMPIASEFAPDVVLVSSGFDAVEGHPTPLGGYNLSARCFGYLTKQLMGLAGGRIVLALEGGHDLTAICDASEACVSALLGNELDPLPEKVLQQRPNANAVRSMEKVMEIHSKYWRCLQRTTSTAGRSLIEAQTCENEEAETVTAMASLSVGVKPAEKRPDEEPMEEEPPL
Chain of Histone deacetylase HD1B (Q9ZTP8 whole entry): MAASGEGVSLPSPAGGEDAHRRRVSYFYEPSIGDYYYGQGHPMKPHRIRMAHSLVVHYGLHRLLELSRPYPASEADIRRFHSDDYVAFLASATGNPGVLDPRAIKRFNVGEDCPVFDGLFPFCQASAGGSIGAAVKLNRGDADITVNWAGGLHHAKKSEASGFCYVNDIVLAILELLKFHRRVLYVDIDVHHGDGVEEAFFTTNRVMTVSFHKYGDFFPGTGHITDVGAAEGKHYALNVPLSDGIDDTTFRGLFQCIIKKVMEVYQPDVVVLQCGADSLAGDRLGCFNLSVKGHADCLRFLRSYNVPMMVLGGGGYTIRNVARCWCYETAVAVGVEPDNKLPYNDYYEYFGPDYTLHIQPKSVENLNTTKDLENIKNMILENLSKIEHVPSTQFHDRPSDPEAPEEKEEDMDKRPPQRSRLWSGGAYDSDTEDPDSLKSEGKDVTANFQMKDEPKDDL
Chain of Histone deacetylase 5 (Q9UQL6 whole entry): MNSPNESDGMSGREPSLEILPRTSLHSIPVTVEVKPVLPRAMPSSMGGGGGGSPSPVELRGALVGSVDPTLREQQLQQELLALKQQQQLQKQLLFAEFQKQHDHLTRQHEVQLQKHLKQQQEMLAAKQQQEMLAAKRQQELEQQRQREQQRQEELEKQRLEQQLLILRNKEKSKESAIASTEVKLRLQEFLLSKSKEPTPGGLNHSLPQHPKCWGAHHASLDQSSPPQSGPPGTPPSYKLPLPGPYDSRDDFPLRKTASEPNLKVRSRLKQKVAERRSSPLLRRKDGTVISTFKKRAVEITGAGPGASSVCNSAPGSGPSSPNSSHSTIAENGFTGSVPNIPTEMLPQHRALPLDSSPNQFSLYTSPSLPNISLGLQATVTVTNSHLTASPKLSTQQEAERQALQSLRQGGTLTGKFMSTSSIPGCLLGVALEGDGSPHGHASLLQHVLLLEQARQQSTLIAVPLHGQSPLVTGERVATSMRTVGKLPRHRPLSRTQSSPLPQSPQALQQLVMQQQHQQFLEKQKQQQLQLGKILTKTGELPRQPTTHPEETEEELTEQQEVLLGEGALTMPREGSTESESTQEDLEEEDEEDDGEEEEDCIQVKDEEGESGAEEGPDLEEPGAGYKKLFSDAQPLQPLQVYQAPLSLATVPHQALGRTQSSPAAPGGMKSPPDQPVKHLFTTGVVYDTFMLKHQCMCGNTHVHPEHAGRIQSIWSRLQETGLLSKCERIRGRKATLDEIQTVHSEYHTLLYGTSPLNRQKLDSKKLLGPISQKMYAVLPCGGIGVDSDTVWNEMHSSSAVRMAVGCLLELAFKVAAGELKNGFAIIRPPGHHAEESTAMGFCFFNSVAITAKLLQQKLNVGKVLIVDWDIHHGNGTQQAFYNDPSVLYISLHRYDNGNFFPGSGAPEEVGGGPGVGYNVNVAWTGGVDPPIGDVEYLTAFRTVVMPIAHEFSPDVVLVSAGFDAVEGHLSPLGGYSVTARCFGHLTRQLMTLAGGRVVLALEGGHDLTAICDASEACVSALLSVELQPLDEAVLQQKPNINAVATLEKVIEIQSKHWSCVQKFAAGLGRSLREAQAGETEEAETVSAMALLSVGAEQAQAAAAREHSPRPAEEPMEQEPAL

Work on `O=C(NO)c1ccc(CC(=O)N(CCO)c2ccccc2)cc1` yielded a pIC50 (Histone deacetylase 2 [1]) of 5.36.
`O=C(CCCc1ccccc1)Nc1ccc(C(=O)NO)cc1` showed a pIC50 [2] of 7.36.
With `O=C(Cc1ccc(C(=O)NO)cc1)NC1=CC(=O)c2ccccc2C1=O` the pIC50 [3] was 8.22.
`Cc1nc2ccccc2n1Cc1ccc(C(=O)NO)cc1F` gave a pIC50 (Histone deacetylase 2 [4]) of 4.69, a pIC50 (Histone deacetylase 3) of 4.90 and a pIC50 (Histone deacetylase 4) of 6.30. The pIC50 (Histone deacetylase 5) was 6.70, the pIC50 [5] was 9.10 and the pIC50 (Histone deacetylase 8 [6]) was 6.70. It also gave a pIC50 [7] of 4.69 and a pIC50 (Histone deacetylase 11) of 4.89.
In the case of `CCN(CC)Cc1ccc2cc(COC(=O)Nc3ccc(C(=O)NO)cc3)ccc2c1` [GIVINOSTAT], the pIC50 [8] was 7.80 to 8.12, the pIC50 (Histone deacetylase HD1B) was 7.80 to 8.12 and the pIC50 [9] was 7.80 to 8.12.
`O=C(/C=C/c1cccc(C(=O)NO)c1)NO` showed a pIC50 (Histone deacetylase 1 [10]) of 8.00 and a pIC50 (Histone deacetylase 3) of 7.15.
With `O=C1Nc2ccccc2/C1=N/NC(=S)Nc1ccc(C(=O)NO)cc1` the inhibition (Histone deacetylase 1 [11]) was < 10%, the inhibition [12] was 41% and the pIC50 (Histone deacetylase 8 [13]) was 4.80.
